The text below walks through data of US12030875B2, “EIF4E inhibitors and uses thereof” (PIC Therapeutics, Inc., priority 2018, dated 2024).

A word on the IC50: it is the concentration that inhibits the measured activity by half.

The target in this test is T1, Human eIF4E (Homo sapiens, UniProt P06730).
T1 construct: Human eIF4E (aa 28-217) with a C-terminal His-tag; made in house
T1 sequence (P06730 28-217): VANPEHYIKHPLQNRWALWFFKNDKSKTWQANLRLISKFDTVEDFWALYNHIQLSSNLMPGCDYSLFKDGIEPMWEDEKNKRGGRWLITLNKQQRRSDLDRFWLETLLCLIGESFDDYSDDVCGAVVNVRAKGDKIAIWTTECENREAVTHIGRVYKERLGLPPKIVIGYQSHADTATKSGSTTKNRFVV
Put plainly: Human eIF4E/4G2 binding assay (TR-FRET). The conditions noted are these: eIF4E (aa 28-217) with biotin labeled 4G2 peptide. As for the experimental part:
Human eIF4E (aa 28-217) with a C-terminal His-tag was expressed in E. coli in inclusion bodies. The protein was solubilized with 8 M urea and purified under denaturing conditions using nickel-charged HisTrap HP columns (GE Healthcare). The purified protein was then refolded by diluting in 20 mM Hepes pH 7.0, 0.5 M NaCl, 1 mM DTT, 1 mM EDTA, 0.5 M arginine plus 6 M urea, and then dialyzing overnight into the same buffer without the urea. The protein was further dialyzed into 20 mM Hepes, pH 6.5, 50 mM NaCl, 1 mM EDTA, 1 mM DTT, and concentrated using Hitrap SP sepharose FF columns (GE Healthcare). The concentrated protein was dialyzed into 20 mM Hepes, pH 7.0, 0.5M NaCl, 5 mM DTT and 10% glycerol, and stored at −80° C. until use.
Test compounds (3.43 mM stock in DMSO) were diluted 2-fold in series in DMSO (10 concentration points). Compound solutions (1.2 μl/well) were added into black 384-well polypropylene microplates (Matrix, Thermal Scientific). Twenty-two microliters per well of Assay Buffer (50 mM NaPi, pH 6.5, 50 mM KCl, 1 mM DTT and 0.5 mg/ml gamma globulin) and eight microliters per well of 82.5 nM purified eIF4E in Assay Buffer were added. The samples were incubated at room temperature (20-23° C.) for 15 min. Biotin labeled 4G2 peptide (Ac-Lys-Gln-Tyr-Asp-Arg-Glu-Phe-Leu-Leu-Asp-Phe-Gln-Phe-Met-Pro-Lys(Aha-Bio)-NH2, 1.75 μM stock in DMSO) was diluted to 0.14 μM in Assay Buffer (without DTT) and 5 μl/well was added. The samples were incubated at room temperature for 15 min. Five microliters per well of 6.4 nM Eu-streptavidin (Eu-SA, Perkin Elmer) and 80 nM Allophycocyanin (APC)-anti His antibody (Columbia Biosciences) in Assay Buffer (without DTT) were then added and the samples were incubated at room temperature for 20 min.
Assay signals were monitored by reading excitation at 340 nm and emission fluorescence at 615 nm and 665 nm on an Envision reader (Perkin Elmer). Normalized TR-FRET (time-resolved fluorescence resonance energy transfer) assay signal (Rn) was calculated by the formula: Rn═[(A−Ba−C×D)/(D−Bd)]×(Dc−Bd) • Where A is the fluorescence intensity of the sample at 665 nm, • D is the fluorescence intensity of the sample at 615 nm, • Ba and Bd are plate backgrounds at 665 nm and 615 nm, respectively, • Dc is the fluorescence intensity of 0.78 nM Eu-SA in the assay buffer at 615 nm • The cross-talk factor (C) is determined by the following formula: C=(Ac−Ba)/(Dc−Bd) • Where Ac is the fluorescence intensity of 0.78 nM Eu-SA in the assay buffer at 665 nm.
IC50 values were calculated using xLFit program (IDBS).
Background: In TR-FRET formats the signal depends on donor and acceptor labels being close together.
On to `CC(C)C(CC(=O)O)Nc1nc(-c2ccccc2)c(-c2ccc(-c3cnco3)cc2)s1` (centres unmarked) [Compound I-1], for which the concentration for half-maximal inhibition (IC50) was greater than 25 µM.
In turn, `CC(C)C(CC(=O)O)Nc1nc(-c2cncnc2)c(-c2ccc(-c3cnco3)cc2)s1` (centres unmarked) [Compound I-2] displayed a half-inhibitory concentration (IC50) greater than 25 µM.
`CC(C)C(CC(=O)O)Nc1nc(-c2cccnc2)c(-c2ccc(-c3cnco3)cc2)s1` (centres unmarked) [Compound I-3] showed a half-maximal inhibitory concentration (IC50) greater than 25 µM.
Take `CC(C)C(CC(=O)O)Nc1nc(-c2ccc(-c3cnco3)cc2)c(-c2cccc3[nH]ccc23)s1` (centres unmarked) [Compound I-4]: the IC50 was greater than 25 µM.
In turn, `CC(C)(CNc1nc(-c2ccc(-c3cnco3)cc2)c(-c2ccccc2)s1)C(=O)O` [Compound I-5] displayed a 50% inhibitory concentration (IC50) greater than 25 µM.
For `CC(C)(CNc1nc(-c2ccc(-c3cnco3)cc2)c(-c2cncnc2)s1)C(=O)O` [Compound I-6] the value was greater than 25 µM.
For `CC(C)(CNc1nc(-c2ccc(-c3cnco3)cc2)c(-c2cccnc2)s1)C(=O)O` [Compound I-7] the value was greater than 25 µM.
For `CC(C)(CNc1nc(-c2ccc(-c3cnco3)cc2)c(-c2cccc3[nH]ccc23)s1)C(=O)O` [Compound I-8] the value was greater than 25 µM; for `O=C(O)C1CN(c2nc(-c3ccc(-c4cnco4)cc3)c(-c3ccccc3)s2)C1` [Compound I-9], greater than 25 µM; for `O=C(O)C1CN(c2nc(-c3ccc(-c4cnco4)cc3)c(-c3cncnc3)s2)C1` [Compound I-10], greater than 25 µM.
For `O=C(O)C1CN(c2nc(-c3ccc(-c4cnco4)cc3)c(-c3cccnc3)s2)C1` [Compound I-11], the concentration for half-maximal inhibition (IC50) was greater than 25 µM.
In the case of `O=C(O)C1CN(c2nc(-c3ccc(-c4cnco4)cc3)c(-c3cccc4[nH]ccc34)s2)C1` [Compound I-12] it was greater than 25 µM; in that of `CC1(C(=O)O)CN(c2nc(-c3ccc(-c4cnco4)cc3)c(-c3ccccc3)s2)C1` [Compound I-13], greater than 25 µM; in that of `CC1(C(=O)O)CN(c2nc(-c3ccc(-c4cnco4)cc3)c(-c3cncnc3)s2)C1` [Compound I-14], greater than 25 µM.
As for `CC1(C(=O)O)CN(c2nc(-c3ccc(-c4cnco4)cc3)c(-c3cccnc3)s2)C1` [Compound I-15], the 50% inhibitory concentration (IC50) is greater than 25 µM.
For `CC1(C(=O)O)CN(c2nc(-c3ccc(-c4cnco4)cc3)c(-c3cccc4[nH]ccc34)s2)C1` [Compound I-16] the value was greater than 25 µM; for `CCCC(CNc1nc(-c2ccc(-c3cnco3)cc2)cs1)C(=O)O` (centres unmarked) [Compound I-17], greater than 25 µM.
In the case of `CCCC(CNc1nc(-c2ccc(-c3cnco3)cc2)c(-c2ccccc2)s1)C(=O)O` (centres unmarked) [Compound I-18] it was 5 to 25 µM.
For `CCCC(CNc1nc(-c2cncnc2)c(-c2ccc(-c3cnco3)cc2)s1)C(=O)O` (centres unmarked) [Compound I-19] the value was greater than 25 µM; for `CCCC(CNc1nc(-c2cccnc2)c(-c2ccc(-c3cnco3)cc2)s1)C(=O)O` (centres unmarked) [Compound I-20], greater than 25 µM.
`CCCC(CNc1nc(-c2ccc(-c3cnco3)cc2)c(-c2cccc3[nH]ccc23)s1)C(=O)O` (centres unmarked) [Compound I-21] registered a half-inhibitory concentration (IC50) greater than 25 µM.
In the case of `CC(CC(=O)O)Nc1nc(-c2ccc(-c3cnco3)cc2)c(-c2ccccc2)s1` (centres unmarked) [Compound I-22] it was greater than 25 µM; in that of `CC(CC(=O)O)Nc1nc(-c2ccc(-c3cnco3)cc2)c(-c2cncnc2)s1` (centres unmarked) [Compound I-23], greater than 25 µM.
In turn, `CC(CC(=O)O)Nc1nc(-c2ccc(-c3cnco3)cc2)c(-c2cccnc2)s1` (centres unmarked) [Compound I-24] showed an IC50 greater than 25 µM.
In the case of `CC(CC(=O)O)Nc1nc(-c2ccc(-c3cnco3)cc2)c(-c2cccc3[nH]ccc23)s1` (centres unmarked) [Compound I-25] it was greater than 25 µM; in that of `CC(CNc1nc(-c2ccc(-c3cnco3)cc2)cs1)C(=O)O` (centres unmarked) [Compound I-26], greater than 25 µM.
As to `CC(CNc1nc(-c2ccc(-c3cnco3)cc2)c(-c2ccccc2)s1)C(=O)O` (centres unmarked) [Compound I-27], the IC50 was greater than 25 µM.
In the case of `CC(CNc1nc(-c2ccc(-c3cnco3)cc2)c(-c2cncnc2)s1)C(=O)O` (centres unmarked) [Compound I-28] it was greater than 25 µM.
In the case of `CC(CNc1nc(-c2ccc(-c3cnco3)cc2)c(-c2cccnc2)s1)C(=O)O` (centres unmarked) [Compound I-29] it was greater than 25 µM.
As to `CC(CNc1nc(-c2ccc(-c3cnco3)cc2)c(-c2cccc3[nH]ccc23)s1)C(=O)O` (centres unmarked) [Compound I-30], the concentration for half-maximal inhibition (IC50) was greater than 25 µM.
For `O=C(O)C1CCCN(c2nc(-c3ccc(-c4cnco4)cc3)c(-c3ccccc3)s2)C1` (centres unmarked) [Compound I-31] the value was greater than 25 µM.
Turning to `O=C(O)C1CCCN(c2nc(-c3ccc(-c4cnco4)cc3)c(-c3cncnc3)s2)C1` (centres unmarked) [Compound I-32], the half-maximal inhibitory concentration (IC50) is greater than 25 µM.
Consider `O=C(O)C1CCCN(c2nc(-c3ccc(-c4cnco4)cc3)c(-c3cccnc3)s2)C1` (centres unmarked) [Compound I-33], for which the concentration for half-maximal inhibition (IC50) was greater than 25 µM.
Take `O=C(O)C1CCCN(c2nc(-c3ccc(-c4cnco4)cc3)c(-c3cccc4[nH]ccc34)s2)C1` (centres unmarked) [Compound I-34]: the IC50 is greater than 25 µM.
For `O=C(O)CC1CCCN1c1nc(-c2ccc(-c3cnco3)cc2)cs1` (centres unmarked) [Compound I-35] the value was greater than 25 µM; for `O=C(O)CC1CCCN1c1nc(-c2ccc(-c3cnco3)cc2)c(-c2ccccc2)s1` (centres unmarked) [Compound I-36], greater than 25 µM; for `O=C(O)CC1CCCN1c1nc(-c2ccc(-c3cnco3)cc2)c(-c2cncnc2)s1` (centres unmarked) [Compound I-37], greater than 25 µM.
Take `O=C(O)CC1CCCN1c1nc(-c2ccc(-c3cnco3)cc2)c(-c2cccnc2)s1` (centres unmarked) [Compound I-38]: the half-inhibitory concentration (IC50) is greater than 25 µM.
`O=C(O)CC1CCCN1c1nc(-c2ccc(-c3cnco3)cc2)c(-c2cccc3[nH]ccc23)s1` (centres unmarked) [Compound I-39]: the IC50 is greater than 25 µM.
For `O=C(O)C1CCN(c2nc(-c3ccc(-c4cnco4)cc3)c(-c3ccccc3)s2)C1` (centres unmarked) [Compound I-40] the value was greater than 25 µM; for `O=C(O)C1CCN(c2nc(-c3ccc(-c4cnco4)cc3)c(-c3cncnc3)s2)C1` (centres unmarked) [Compound I-41], greater than 25 µM.
With `O=C(O)C1CCN(c2nc(-c3ccc(-c4cnco4)cc3)c(-c3cccnc3)s2)C1` (centres unmarked) [Compound I-42], the half-inhibitory concentration (IC50) was greater than 25 µM.
For `O=C(O)C1CCN(c2nc(-c3ccc(-c4cnco4)cc3)c(-c3cccc4[nH]ccc34)s2)C1` (centres unmarked) [Compound I-43] the value was greater than 25 µM; for `O=C(O)C1(CNc2nc(-c3ccc(-c4cnco4)cc3)c(-c3ccccc3)s2)CC1` [Compound I-44], greater than 25 µM; for `O=C(O)C1(CNc2nc(-c3ccc(-c4cnco4)cc3)c(-c3cncnc3)s2)CC1` [Compound I-45], greater than 25 µM.
`O=C(O)C1(CNc2nc(-c3ccc(-c4cnco4)cc3)c(-c3cccnc3)s2)CC1` [Compound I-46] registered an IC50 greater than 25 µM.
For `O=C(O)C1(CNc2nc(-c3ccc(-c4cnco4)cc3)c(-c3cccc4[nH]ccc34)s2)CC1` [Compound I-47] the value was greater than 25 µM; for `O=C(O)C1CCN(c2nc(-c3ccc(-c4cnco4)cc3)c(-c3ccccc3)s2)CC1` [Compound I-52], greater than 25 µM.
`O=C(O)C1CCN(c2nc(-c3ccc(-c4cnco4)cc3)c(-c3cncnc3)s2)CC1` [Compound I-53] displayed a concentration for half-maximal inhibition (IC50) greater than 25 µM.
`O=C(O)C1CCN(c2nc(-c3ccc(-c4cnco4)cc3)c(-c3cccnc3)s2)CC1` [Compound I-54] registered an IC50 greater than 25 µM.
For `O=C(O)C1CCN(c2nc(-c3ccc(-c4cnco4)cc3)c(-c3cccc4[nH]ccc34)s2)CC1` [Compound I-55] the value was greater than 25 µM; for `O=C(O)C1CN(c2nc(-c3ccc(-c4cnco4)cc3)c(-c3ccccc3)s2)CCO1` (centres unmarked) [Compound I-56], greater than 25 µM; for `O=C(O)C1CN(c2nc(-c3ccc(-c4cnco4)cc3)c(-c3cncnc3)s2)CCO1` (centres unmarked) [Compound I-57], greater than 25 µM.
For `O=C(O)C1CN(c2nc(-c3ccc(-c4cnco4)cc3)c(-c3cccnc3)s2)CCO1` (centres unmarked) [Compound I-58] the value was greater than 25 µM; for `O=C(O)C1CN(c2nc(-c3ccc(-c4cnco4)cc3)c(-c3cccc4[nH]ccc34)s2)CCO1` (centres unmarked) [Compound I-59], greater than 25 µM; for `CC1(C(=O)O)CCCN(c2nc(-c3ccc(-c4cnco4)cc3)c(-c3ccccc3)s2)C1` (centres unmarked) [Compound I-60], greater than 25 µM.
